# From ChEMBL document CHEMBL1134944, “Design and synthesis of xanthine analogues as potent and selective PDE5 inhibitors” (Bioorg Med Chem Lett, 2002)
# pIC50: −log10 of the molar value. Calls of active or inactive are those of the source. The rule behind the calls is not given here.
# Legend:
# [1] = molecular target: T1, cGMP-specific 3',5'-cyclic phosphodiesterase (Homo sapiens, UniProt O76074); test: Percentage inhibition against human phosphodiesterase type 5 isolated from corpus cavernosum at 100 nM.
# [2] = molecular target: T1, cGMP-specific 3',5'-cyclic phosphodiesterase; test: Concentration required to inhibit phosphodiesterase type 5 (PDE5) isolated from corpus cavernosum by 50% was determined
# [3] = molecular target: Phosphodiesterases; PDE5 & PDE6 (Homo sapiens) (UniProt O76074+Q13956+P18545+P35913+O43924+P16499+P51160); test: Selectivity for PDE6 compared to PDE5.; format: protein assay
# [4] = Relative inhibition of PDEs 1-4 and PDE5
# Oryctolagus cuniculus [5] = species on record: Oryctolagus cuniculus; test: 0.50 Hz electrical frequency stimulated (EFS) relaxation of rabbit corpus cavernosum at 25-30 nM; format: functional
# Oryctolagus cuniculus [6] = species on record: Oryctolagus cuniculus; test: 1.0 Hz electrical frequency stimulated (EFS) relaxation of rabbit corpus cavernosum at 25-30 nM; format: functional
# Oryctolagus cuniculus [7] = species on record: Oryctolagus cuniculus; test: 16.0 Hz electrical frequency stimulated (EFS) relaxation of rabbit corpus cavernosum at 25-30 nM; format: functional
# Oryctolagus cuniculus [8] = species on record: Oryctolagus cuniculus; test: 2.0 Hz electrical frequency stimulated (EFS) relaxation of rabbit corpus cavernosum at 25-30 nM; format: functional
# Oryctolagus cuniculus [9] = species on record: Oryctolagus cuniculus; test: 4.0 Hz electrical frequency stimulated (EFS) relaxation of rabbit corpus cavernosum at 25-30 nM; format: functional
# Oryctolagus cuniculus [10] = species on record: Oryctolagus cuniculus; test: 8.0 Hz electrical frequency stimulated (EFS) relaxation of rabbit corpus cavernosum at 25-30 nM; format: functional
SMILES,inhibition [1],pIC50 [2],Ratio [3],also measured
CC(C)Cn1c(=O)n(C)c(=O)c2c1nc(NC1CCCC1)n2Cc1ccccc1,49%,–,–,–
CCn1c(=O)c2c(nc(NC3CCCCC3)n2Cc2ccc3c(c2)OCO3)n(CC)c1=O,–,8.43,14,–
CCn1c(=O)c2c(nc(NC3CCCCC3)n2Cc2ccccc2)n(CC)c1=O,93%,7.92,35,–
CCn1c(=O)c2c(nc(NC3CCCC3)n2Cc2ccccc2)n(CC)c1=O,91%,–,21,–
Cn1c(=O)c2c(nc(NC3CCCCC3)n2Cc2ccccc2)n(C)c1=O,54%,–,–,–
CCn1c(=O)c2c(nc(NC3CCCCC3)n2Cc2ccc(OC)c(Cl)c2)n(CC)c1=O,–,9.24,345,Ratio [4]: > 9500
CCn1c(=O)c2c(nc(NC3CCCC3)n2Cc2ccccc2)n(CC(C)C)c1=O,56%,–,–,–
CCn1c(=O)c2c(nc(NC3CCCCC3)n2Cc2ccc(OC)c(C)c2)n(CC)c1=O,–,7.72,58,–
CCn1c(=O)c2c(nc(NC3CCCC3)n2Cc2ccc(OC)cc2)n(CC)c1=O,–,8.68,33,–
CCn1c(=O)c2c(nc(NC3CCCC3)n2Cc2ccc(O)cc2)n(CC)c1=O,–,8.82,46,–
CCn1c(=O)c2c(nc(NC3CCCCC3)n2Cc2ccc(O)c(F)c2)n(CC)c1=O,–,9.48,364,Ratio [4]: > 12000
CCn1c(=O)c2c(nc(NC3CCCCC3)n2Cc2ccccc2)n(CC(C)C)c1=O,63%,–,–,–
CC(C)[C@H](CO)Nc1nc2c(c(=O)n(C)c(=O)n2C)n1Cc1ccccc1,11%,–,–,–
CCn1c(=O)c2c(nc(NC3CCCCC3)n2Cc2ccc(OC)c(F)c2)n(CC)c1=O,–,9.52,350,Ratio [4]: > 28000
CCn1c(=O)c2c(nc(NC3CCCC3)n2Cc2ccc(OC)c(Cl)c2)n(CC)c1=O,–,8.96,118,–
CCn1c(=O)c2c(nc(NC3CCCCC3)n2Cc2ccc(OC)cc2)n(CC)c1=O,–,8.59,51,–
CCn1c(=O)c2c(nc(NC3CCCCC3)n2Cc2ccc(O)c(C)c2)n(CC)c1=O,–,8.35,133,–

SMILES,inhibition [1],pIC50 [2],Ratio [3],also measured
CCn1c(=O)c2c(nc(NC3CCCCC3)n2Cc2ccc(O)cc2)n(CC)c1=O,–,9.22,101,Relaxation (Oryctolagus cuniculus [5]): 25%; Relaxation (Oryctolagus cuniculus [6]): 50%; Relaxation (Oryctolagus cuniculus [7]): 75%; Relaxation (Oryctolagus cuniculus [8]): 75%; Relaxation (Oryctolagus cuniculus [9]): 75%; Relaxation (Oryctolagus cuniculus [10]): 75%; Ratio [4]: > 3000
Cn1c(=O)c2c(nc(NCC3(O)CCCCC3)n2Cc2ccccc2)n(C)c1=O,10%,–,–,–
CCn1c(=O)c2c(nc(NC3CCCCC3)n2Cc2ccc(OC)c(Br)c2)n(CC)c1=O,–,8.77,219,Ratio [4]: > 10000
Cn1c(=O)c2c(nc(N[C@@H](CO)Cc3ccccc3)n2Cc2ccccc2)n(C)c1=O,4%,–,–,–
CCn1c(=O)c2c(nc(NC3CCCCC3)n2Cc2ccc(O)c(Cl)c2)n(CC)c1=O,–,8.70,250,–
CC(C)Cn1c(=O)n(C)c(=O)c2c1nc(NC1CCCCC1)n2Cc1ccccc1,52%,–,–,–
CCn1c(=O)c2c(nc(NC3CCCCC3)n2Cc2cccc(OC)c2)n(CC)c1=O,–,7.00,inactive,–
CCn1c(=O)c2c(nc(NC3CCCC3)n2Cc2ccc(O)c(F)c2)n(CC)c1=O,–,9.09,182,Ratio [4]: > 4400
Cn1c(=O)c2c(nc(N[C@@H](CO)c3ccccc3)n2Cc2ccccc2)n(C)c1=O,0%,–,–,–
Cn1c(=O)c2c(nc(NC3CCCC3)n2Cc2ccccc2)n(C)c1=O,62%,–,–,–
CCn1c(=O)c2c(nc(NC3CCCCC3)n2Cc2cccc(O)c2)n(CC)c1=O,–,8.92,36,–
CCn1c(=O)c2c(nc(NC3CCCC3)n2Cc2ccc(O)c(Cl)c2)n(CC)c1=O,–,8.74,261,–
Cn1c(=O)c2c(nc(N[C@H](CO)Cc3ccccc3)n2Cc2ccccc2)n(C)c1=O,0%,–,–,–
CC(C)[C@@H](CO)Nc1nc2c(c(=O)n(C)c(=O)n2C)n1Cc1ccccc1,2%,–,–,–
Cn1c(=O)c2c(nc(N[C@@H]3CCC[C@H]3O)n2Cc2ccccc2)n(C)c1=O,17%,–,–,–
CCn1c(=O)c2c(nc(NC3CCCC3)n2Cc2ccc(OC)c(F)c2)n(CC)c1=O,–,9.16,89,–
Cn1c(=O)c2c(nc(N[C@H](CO)c3ccccc3)n2Cc2ccccc2)n(C)c1=O,5%,–,–,–
